Tested on: IL-2 stimulated pSTAT5 in Tall-1 T cells (JAK1/3)
Assay: Inhibition of IL-2 stimulated pSTAT5 in Tall-1 T cells
Type: cell-based
Conditions: Homo sapiens, IL-2 300 ng/mL, AlphaLisa pSTAT5, read-out: Tall-1 pIC50 (converted)
Procedure: Assay 2: Inhibition of IL-2 Stimulated pSTAT5 in Tall-1 T Cells
The potency of test compounds for inhibition of interleukin-2 (IL-2) stimulated STATS phosphorylation was measured in the Tall-1 human T cell line (DSMZ) using AlphaLisa. Because IL-2 signals through JAK1/3, this assay provides a measure of JAK1/3 cellular potency.
Phosphorylated STATS was measured via the AlphaLISA SureFire Ultra pSTAT5 (Tyr694/699) kit (PerkinElmer).
Human T cells from the Tall-1 cell line were cultured in a 37° C., 5% CO2 humidified incubator in RPMI (Life Technologies) supplemented with 15% Heat Inactivated Fetal Bovine Serum (FBS, Life Technologies), 2mM Glutamax (Life Technologies), 25 mM HEPES (Life Technologies) and 1X Pen/Strep (Life Technologies). […] Phosphorylated STATS was measured via the pSTAT5 AlphaLisa kit (PerkinElmer). […] Luminescence was measured with excitation at 689 nm and emission at […] using an EnVision plate reader (PerkinElmer) under green filtered <100 lux light.
To determine the inhibitory potency of test compounds in response to IL-2, the average emission intensity of beads bound to pSTAT5 was measured in a human T cell line. IC50 values were determined from analysis of the inhibition curves of signal intensity versus compound concentration. Data are expressed as pIC50 (negative decadic logarithm IC50) values (mean±standard deviation).

CCc1cc(O)ccc1-c1ccc2c(-c3nc4c([nH]3)CN(C(C)C)[C@H](C(=O)N3CC(N(C)C)C3)C4)n[nH]c2c1 [Compound 1, (S)-(3-(dimethylamino)azetidin-1-yl)(2-(6-(2-ethyl-4-hydroxyphenyl)-1H-indazol-3-yl)-5-isopropyl-4,5,6,7-tetrahydro-3H-imidazo[4,5-c]pyridin-6-yl)methanone] was tested, and the IC50 was 2.51 nM.
